Here are results for one molecule from patent US11618883B2, “Method for producing retinal pigment epithelial cells” (SUMITOMO PHARMA CO., LTD., priority 2017, dated 2023).

Assay [1] deals with human iPS cells (201B7, 1231A3, Ff-I01, QHJI01 lines). Description: Production of RPE cells including MEK inhibitor or FGF receptor inhibitor treatment step (first step); observation of brown-black cell population. Format: cell-based. An excerpt:
In one embodiment, to study the effect of the FGF receptor inhibitor in a medium free of a factor for maintaining undifferentiated state (bFGF), STEMSURE™ hPSC Medium Δ (Wako Pure Chemical Industries, Ltd.) (hereinafter STEMSURE™ hPSC Medium Δ w/o bFGF) not added with bFGF was used.
2014 Jan. 8; 4: 3594”. The medium used was STEMFIT™ AK03N medium (Ajinomoto Co., Inc.) (hereinafter AK03N medium).

The next assay deals with RPE65, BEST1, CRALBP. As to the kind of experiment: RT-PCR of retinal pigment epithelial cell markers after MEK inhibitor or FGF receptor inhibitor treatment step. The note with it: first step 6 days (1 μM PD0325901 or 100 nM PD173074); 1231A3 line; day 43; bands very thin when untreated. The assay is classed as cell-based, human. The protocol: 2014 Jan. 8; 4: 3594”. The medium used was […] A[…] medium (Ajinomoto Co., Inc.) (hereinafter A[…] medium). […] After observation on day 43 of culture, the cells were collected, RNA was extracted and RT-PCR was performed. RNEASYTM Micro Kit (QIAGEN) was used for RNA extraction, Oligo(dT)12-18Primer (Invitrogen) and SUPERSCRIPTTM III Reverse Transcriptase (Invitrogen) were used for reverse transcription reaction, and BLEND TAQTM-Plus-(TOYOBO) was used for PCR. The primer sequences of RPE65, BEST1, CRLBP, GAPDH are as described below. […] NO: 1), […] NO: 2), […] NO: 3), […] NO: 4), CRALBP-[…] NO: 5), CRALBP-[…] NO: 6), […] NO: 7), […] NO: 8). The number of cycles of the PCR reaction was 30 cycles for RPE65, BEST1, GAPDH, and 35 cycles for CRALBP. PCR products were detected as a single band by agarose gel electrophoresis at near 369 bp for RPE65, near 261 bp for BEST1, near 341 bp for CRALBP, and near 452 bp for GAPDH. As a positive control, primary human RPE (hRPE) was used and, as a negative control, iPS cells (undifferentiated iPSC) cultured under conditions for maintaining undifferentiated state were used.

Regarding `O=C(NOC[C@H](O)CO)c1ccc(F)c(F)c1Nc1ccc(I)cc1F` [PD0325901, N-[(2R)-2,3-Dihydroxypropoxy]-3,4-difluoro-2-[(2-fluoro-4-iodophenyl)amino]-benzamide], the “emergence of a brown-black cell population” value was “could be confirmed over a wide area” in assay [1] (1 μM PD0325901, exposure for 3 days and 6 days, 1231A3 line, day 37 of culture); “could be confirmed over a wide area” in assay [1] (PD0325901 1 μM (AK03 medium) or 0.03 μM (ESSENTIAL8 medium), 6 days first step, 201B7 and 1231A3 lines, 38 to 42 days of culture); “could be confirmed over a wide area” in assay [1] (first step 6 days (1 μM PD0325901 or 100 nM PD173074), 1231A3 line, day 43 of culture); “could be confirmed over a wide area” in assay [1] (first step 6 days (1 μM PD0325901 or 100 nM PD173074), Ff-I01 and QHJI01 lines, day 43 of culture); “could be confirmed over a wide area” in assay [1] (first step 6 days: 1 μM PD0325901, 1.5, 3, 6 μM PD184352, 5, 10 μM U0126, 0.3 μM TAK-733, 0.3 μM AZD-8330, QHJI01 and 1231A3 lines, day 49 and day 50). In assay [1] (1 μM PD0325901, exposure for 13 days, 1231A3 line, day 37 of culture), the “emergence of colored cell population” value is listed as “sufficient emergence of colored cell population was also confirmed”. The “cells showing typical characteristics of RPE cell” value in assay [1] (1 μM PD0325901, exposure for one day, 1231A3 line, day 37 of culture) is reported as “almost no cell”. In assay [1] (PD0325901, all concentrations studied, first step 6 days, QHJI01 line, day 36 and day 49 of culture), the “concentrations at which emergence of a brown-black cell population could be confirmed over a wide area” value was in the range of 0.25 to 4 µM. Further, the “emergence of RPE cells showing typical characteristics of RPE cell” value in assay [1] (first step 6 days (1 μM PD0325901 or 100 nM PD173074), 201B7 and 1231A3 lines, 38 to 47 days of culture) was “could be confirmed”. Besides, the “RT-PCR bands of retinal pigment epithelial cell markers RPE65, BEST1, CRALBP” value in the assay with RPE65, BEST1, CRALBP is given as “clear bands could be confirmed”.
